One assay has as its system HepG2. Description: Antiproliferative activity against human HepG2 cells assessed as inhibition of cell growth incubated for 72 hrs by MTT assay. Type of assay: functional, cell-based. As to conditions: HepG2, 72 h. For orientation: Tetrazolium dyes change colour on reduction, which living cells bring about.
Assay [1] relates to MCF7. Description: Antiproliferative activity against human MCF7 cells assessed as inhibition of cell growth incubated for 72 hrs by MTT assay. The format is functional, cell-based. The conditions noted are these: MCF7, 72 h.
The subject of another assay is A549. The experiment in a line: Antiproliferative activity against human A549 cells assessed as inhibition of cell growth incubated for 72 hrs by MTT assay. As to conditions: A549, 72 h. The format is functional, cell-based.
For assay [2], the system named is MDA-MB-231. Description: Antiproliferative activity against human MDA-MB-231 cells assessed as inhibition of cell growth incubated for 72 hrs by MTT assay. The conditions noted are these: MDA-MB-231, 72 h. Type of assay: functional, cell-based.
In assay [3] the test system is MDA-MB-231. Description: Cell cycle arrest in human MDA-MB-231 cells assessed as accumulation of cells at G0/G1 phase at 10 uM incubated for 24 hrs by propidium iodide staining based assay (reference value: 54.43%). Type of assay: functional.
Assay [4] has as its system MDA-MB-231. The experiment in a line: Cell cycle arrest in human MDA-MB-231 cells assessed as accumulation of cells at G2/M phase at 10 uM incubated for 24 hrs by propidium iodide staining based assay (reference value: 20.49%). The format is functional.
The test system of assay [5] is MDA-MB-231. Description: Induction of apoptosis in human MDA-MB-231 cells assessed as late apoptotic cells at 10 uM incubated for 24 hrs by annexin V-FITC/propidium iodide staining based flow cytometry analysis (reference value: 0.113%). Type of assay: functional. For orientation: Flow cytometry measures light scatter and fluorescence of single cells or particles in a stream.

Assay [6] has as its system MDA-MB-231. Description: Induction of apoptosis in human MDA-MB-231 cells assessed as early apoptotic cells at 10 uM incubated for 24 hrs by annexin V-FITC/propidium iodide staining based flow cytometry analysis (reference value: 3.39%). The format is functional.
Assay [7] deals with MDA-MB-231. The experiment in a line: Induction of apoptosis in human MDA-MB-231 cells assessed as viable cells at 10 uM incubated for 24 hrs by annexin V-FITC/propidium iodide staining based flow cytometry analysis (reference value: 96.5%). As to conditions: read-out: Activity. Type of assay: functional.
Assay [8] relates to MDA-MB-231. The experiment in a line: Induction of apoptosis in human MDA-MB-231 cells assessed as necrotic cells at 10 uM incubated for 24 hrs by annexin V-FITC/propidium iodide staining based flow cytometry analysis (reference value: 0.034%). The format is functional.
Assay [9] has as its system MDA-MB-231. Description: Cell cycle arrest in human MDA-MB-231 cells assessed as accumulation of cells at S phase at 10 uM incubated for 24 hrs by propidium iodide staining based assay (reference value: 25.09%). The format is functional.
Assay [10] relates to MDA-MB-231. Description: Induction of apoptosis in human MDA-MB-231 cells assessed as apoptosis rate at 10 uM incubated for 24 hrs by annexin V-FITC/propidium iodide staining based flow cytometry analysis. The format is functional.
Assay [11] concerns MCF7. The experiment in a line: Antiproliferative activity against palbociclib-resistant human MCF7 cells assessed as inhibition of cell growth incubated for 72 hrs by MTT assay. The conditions noted are these: MCF7, 72 h. Type of assay: functional, cell-based.
Assay [12] concerns the target Cyclin-dependent kinase 9 (Homo sapiens, UniProt P50750). The experiment in a line: Covalent inhibition of CDK9 (unknown origin) using histone H1 as substrate incubated for 10 mins in presence of [gamma-32P]ATP by radioactivity based kinase assay.
Assay [13] deals with Cyclin-dependent kinase 4 (Homo sapiens, UniProt P11802). The experiment in a line: Covalent inhibition of CDK4 (unknown origin) using histone H1 as substrate incubated for 10 mins in presence of [gamma-32P]ATP by radioactivity based kinase assay.
Sequence of Cyclin-dependent kinase 4 (P11802 whole entry): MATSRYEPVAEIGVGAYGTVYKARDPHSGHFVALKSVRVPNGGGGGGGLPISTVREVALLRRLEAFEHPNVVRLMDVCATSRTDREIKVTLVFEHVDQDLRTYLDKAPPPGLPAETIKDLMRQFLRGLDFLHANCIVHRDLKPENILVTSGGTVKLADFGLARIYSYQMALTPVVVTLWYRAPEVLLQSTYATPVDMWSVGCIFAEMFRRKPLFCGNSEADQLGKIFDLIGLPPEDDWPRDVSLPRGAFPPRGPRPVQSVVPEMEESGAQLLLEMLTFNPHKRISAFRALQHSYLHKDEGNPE
The target of assay [14] is Cyclin-dependent kinase 6 (Homo sapiens, UniProt Q00534). The experiment in a line: Covalent inhibition of CDK6 (unknown origin) using histone H1 as substrate incubated for 10 mins in presence of [gamma-32P]ATP by radioactivity based kinase assay.
Sequence of Cyclin-dependent kinase 6 (Q00534 whole entry): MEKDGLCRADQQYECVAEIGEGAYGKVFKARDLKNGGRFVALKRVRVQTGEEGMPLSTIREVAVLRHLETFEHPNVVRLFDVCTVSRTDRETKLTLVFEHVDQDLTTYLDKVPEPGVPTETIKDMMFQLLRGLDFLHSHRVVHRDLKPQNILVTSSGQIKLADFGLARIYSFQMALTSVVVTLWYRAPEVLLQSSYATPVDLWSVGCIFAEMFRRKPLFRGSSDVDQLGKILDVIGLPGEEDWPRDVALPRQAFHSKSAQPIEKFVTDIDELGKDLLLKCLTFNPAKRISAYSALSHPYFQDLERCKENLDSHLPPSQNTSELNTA
Assay [15] deals with Cyclin-dependent kinase 12 (Homo sapiens, UniProt Q9NYV4). The experiment in a line: Covalent inhibition of CDK12 (unknown origin) using histone H1 as substrate incubated for 10 mins in presence of [gamma-32P]ATP by radioactivity based kinase assay.
Sequence of Cyclin-dependent kinase 12 (Q9NYV4 whole entry): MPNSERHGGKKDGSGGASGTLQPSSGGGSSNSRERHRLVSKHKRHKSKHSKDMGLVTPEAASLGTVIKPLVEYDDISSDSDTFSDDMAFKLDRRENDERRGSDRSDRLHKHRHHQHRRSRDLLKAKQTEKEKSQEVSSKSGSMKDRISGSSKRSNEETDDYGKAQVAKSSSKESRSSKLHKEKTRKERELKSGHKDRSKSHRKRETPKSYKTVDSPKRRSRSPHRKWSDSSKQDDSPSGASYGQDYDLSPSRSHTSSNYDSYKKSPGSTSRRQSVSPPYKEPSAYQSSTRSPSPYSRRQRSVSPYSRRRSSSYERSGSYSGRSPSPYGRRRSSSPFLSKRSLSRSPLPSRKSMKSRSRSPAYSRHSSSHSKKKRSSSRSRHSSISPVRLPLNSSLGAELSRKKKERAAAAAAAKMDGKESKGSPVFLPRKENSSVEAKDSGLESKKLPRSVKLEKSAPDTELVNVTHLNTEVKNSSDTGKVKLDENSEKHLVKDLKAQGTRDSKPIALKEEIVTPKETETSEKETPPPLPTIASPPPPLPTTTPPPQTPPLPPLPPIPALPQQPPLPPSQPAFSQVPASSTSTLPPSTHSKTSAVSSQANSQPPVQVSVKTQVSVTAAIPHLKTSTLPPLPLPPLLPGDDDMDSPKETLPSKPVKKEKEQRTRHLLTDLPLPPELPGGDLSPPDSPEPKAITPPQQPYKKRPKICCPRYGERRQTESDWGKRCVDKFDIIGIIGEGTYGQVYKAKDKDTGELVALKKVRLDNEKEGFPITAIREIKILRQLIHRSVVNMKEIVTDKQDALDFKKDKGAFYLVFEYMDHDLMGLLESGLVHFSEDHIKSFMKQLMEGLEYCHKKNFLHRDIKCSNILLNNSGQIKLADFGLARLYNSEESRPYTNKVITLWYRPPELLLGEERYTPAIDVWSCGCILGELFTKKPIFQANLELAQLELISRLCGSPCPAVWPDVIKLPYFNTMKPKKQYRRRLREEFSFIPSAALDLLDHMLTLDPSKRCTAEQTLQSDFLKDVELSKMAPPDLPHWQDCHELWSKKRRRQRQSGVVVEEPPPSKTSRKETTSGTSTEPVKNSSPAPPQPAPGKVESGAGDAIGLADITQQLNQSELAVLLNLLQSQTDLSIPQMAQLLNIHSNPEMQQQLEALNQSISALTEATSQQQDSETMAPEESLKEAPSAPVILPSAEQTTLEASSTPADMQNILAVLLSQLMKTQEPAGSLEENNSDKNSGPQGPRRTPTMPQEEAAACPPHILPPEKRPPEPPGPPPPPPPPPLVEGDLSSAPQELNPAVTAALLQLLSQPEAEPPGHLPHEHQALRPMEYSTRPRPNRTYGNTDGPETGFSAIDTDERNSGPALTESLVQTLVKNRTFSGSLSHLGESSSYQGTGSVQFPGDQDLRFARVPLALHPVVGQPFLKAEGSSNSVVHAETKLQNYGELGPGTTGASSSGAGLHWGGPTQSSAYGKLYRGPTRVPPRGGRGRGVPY
In assay [16] the target is T1, Cyclin-dependent kinase 4/6 (Homo sapiens) (UniProt P11802+Q00534). Description: Inhibition of CDK4/CDK6 signaling pathway in human MDA-MB-231 cells assessed as inhibition of CDK4 expression level at 1 to 8 uM incubated for 24 hrs by western blot assay. Type of assay: cell-based. The conditions noted are these: dose 1-8 µM. Background: Immunoblotting shows a protein as a band on a membrane.
T1 sequence (P11802 whole entry, looked up): as the sequence (P11802 whole entry) above
T1 sequence (Q00534 whole entry, looked up): as the sequence (Q00534 whole entry) above

Assay [17] can be described thus: Resistance factor, ratio of IC50 for palbociclib-resistant human MCF7 cells to IC50 for human MCF7 cells. Type of assay: functional.
In assay [18] the target is T1, Cyclin-dependent kinase 4/6 (Homo sapiens). Description: Inhibition of CDK4/CDK6 signaling pathway in human MDA-MB-231 cells assessed as inhibition of CDK6 expression level at 1 to 8 uM incubated for 24 hrs by western blot assay. Type of assay: cell-based. As to conditions: dose 1-8 µM.
Assay [19] has the same target. Description: Inhibition of CDK4/CDK6 signaling pathway in human MDA-MB-231 cells assessed as reduction of RB phosphorylation at Ser780 residue level at 1 to 8 uM incubated for 24 hrs by western blot assay. Type of assay: cell-based. The conditions noted are these: dose 1-8 µM.

Structures are written as SMILES. pIC50: −log10 of the molar value. Bounds are passed on as bounds.

Sequence of Cyclin-dependent kinase 9 (P50750 whole entry): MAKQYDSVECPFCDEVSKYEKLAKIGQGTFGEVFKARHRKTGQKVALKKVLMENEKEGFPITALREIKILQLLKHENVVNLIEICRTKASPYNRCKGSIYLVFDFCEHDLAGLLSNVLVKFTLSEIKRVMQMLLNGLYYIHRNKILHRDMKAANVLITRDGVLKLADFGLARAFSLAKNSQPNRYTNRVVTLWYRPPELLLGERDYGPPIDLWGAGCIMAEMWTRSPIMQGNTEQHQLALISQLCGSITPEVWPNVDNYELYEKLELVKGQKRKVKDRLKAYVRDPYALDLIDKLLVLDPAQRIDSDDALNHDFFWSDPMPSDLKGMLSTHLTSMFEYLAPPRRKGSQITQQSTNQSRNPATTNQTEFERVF

Consider `COc1ccc(/C=C/C(=O)NCCCC(=O)N2CCN(c3ccc(Nc4ncc5c(C)c(C(C)=O)c(=O)n(C6CCCC6)c5n4)nc3)CC2)cc1O`, for which the negative-log IC50 (pIC50) with HepG2 is less than 4.70; in the assay with MCF7 [1], 5.57; in the assay with A549, less than 4.70; in the assay on MDA-MB-231 [2] it was 5.09.
For the compound `COc1ccc(/C=C/C(=O)NCCC(=O)N2CCN(c3ccc(Nc4ncc5c(C)c(C(C)=O)c(=O)n(C6CCCC6)c5n4)nc3)CC2)cc1OC`, the pIC50 with HepG2 was 5.00; with MCF7 [1] it was less than 4.70; in the assay on A549, 4.93; in the assay on MDA-MB-231 [2], 5.14.
In the case of `COc1cc(/C=C/C(=O)NCC(=O)N2CCN(c3ccc(Nc4ncc5c(C)c(C(C)=O)c(=O)n(C6CCCC6)c5n4)nc3)CC2)ccc1O`, the negative-log IC50 (pIC50) in the assay with HepG2 is 4.98; in the assay with MCF7 [1], less than 4.70; in the assay on A549, 4.92; in the assay on MDA-MB-231 [2] it was 5.20.
Taken in the same sequence, the figures for `COC(=O)/C=C/CN1CCN(c2ccc(Nc3ncc4c(C)c(C(C)=O)c(=O)n(C5CCCC5)c4n3)nc2)CC1` were less than 4.70, less than 4.70, 4.78 and less than 4.70.
Take `CC(=O)c1c(C)c2cnc(Nc3ccc(N4CCNCC4)cn3)nc2n(C2CCCC2)c1=O` [PALBOCICLIB]: the Activity in the assay with MDA-MB-231 [3] came to 71.23%; in the assay with MDA-MB-231 [4], 11.78%; with MDA-MB-231 [5] it was 26.1%; with MDA-MB-231 [6], 47.6%; with MDA-MB-231 [8], 1.47%; in the assay with MDA-MB-231 [9], 16.99%. Besides, in the assay on MDA-MB-231 [10], the Activity was determined as 73.7%. Further, the pIC50 is 5.00 in the assay with HepG2; 6.11 in the assay with MCF7 [1]; 5.09 in the assay on A549; 5.25 in the assay with MDA-MB-231 [2]; 5.24 with MCF7 [11]. In addition, the viability at 10 µM in the assay on MDA-MB-231 [7] amounted to 24.8%.
For `C=CC(=O)N1CCN(c2ccc(Nc3ncc4c(C)c(C(C)=O)c(=O)n(C5CCCC5)c4n3)nc2)CC1`, the Activity in the assay with MDA-MB-231 [3] amounted to 60.21%; in the assay with MDA-MB-231 [4] it was 13.78%; in the assay with MDA-MB-231 [5], 15.2%; in the assay with MDA-MB-231 [6] it was 40.3%; in the assay with MDA-MB-231 [8] it was 0.689%; in the assay on MDA-MB-231 [9], 26.01%. The Activity in the assay on MDA-MB-231 [10] was determined as 55.5%. Further, the pIC50 in the assay with HepG2 is 5.02; in the assay on MCF7 [1], 6.21; in assay [12], less than 6.00; in assay [13], 7.64; in the assay on A549 it was 5.01; in [14] it was 7.82. Besides, the pIC50 in the assay on MDA-MB-231 [2] is 5.28; in assay [15], 6.05. In the assay with MDA-MB-231 [7], the viability at 10 µM came to 43.8%.
As for `COc1ccc(/C=C/C(=O)N2CCN(c3ccc(Nc4ncc5c(C)c(C(C)=O)c(=O)n(C6CCCC6)c5n4)nc3)CC2)cc1OC`, the negative logarithm of the IC50 (pIC50) is less than 4.70 with HepG2, 5.73 with MCF7 [1], 4.79 with A549 and less than 4.70 in the assay with MDA-MB-231 [2].
On to `CC(=O)c1c(C)c2cnc(Nc3ccc(N4CCN(C(=O)/C=C/C(F)(F)F)CC4)cn3)nc2n(C2CCCC2)c1=O`, for which the inhibition result in [16], in assay [18] and in assay [19] was “Dose-Dependent Effect” in each case. The Activity worked out at 68.69% with MDA-MB-231 [3]; 10.14% with MDA-MB-231 [4]; 16.7% with MDA-MB-231 [5]; 62.3% with MDA-MB-231 [6]; 0.445% in the assay on MDA-MB-231 [8]; 21.16% in the assay with MDA-MB-231 [9]. Besides, in the assay on MDA-MB-231 [10], the Activity is recorded as 79%. For the same compound, the pIC50 with HepG2 was 5.29; in the assay on MCF7 [1], 6.32; in [12] it was less than 6.00; in [13] it was 7.74; in the assay on A549, 5.81; in [14] it was 7.89. For the same compound, the negative-log IC50 (pIC50) was 6.29 in the assay on MDA-MB-231 [2], 6.28 with MCF7 [11] and less than 6.00 in assay [15]. The “Ratio IC50” value in assay [17] came to 1.1. Also, the viability at 10 µM with MDA-MB-231 [7] turned out to be 20.6%.
For `CC(=O)c1c(C)c2cnc(Nc3ccc(N4CCN(C(=O)/C(C#N)=C/c5ccccc5)CC4)cn3)nc2n(C2CCCC2)c1=O`, the Activity in the assay with MDA-MB-231 [3] was found to be 63.83%; with MDA-MB-231 [4] it was 11.59%; in the assay with MDA-MB-231 [5], 11%; with MDA-MB-231 [6] it was 52.1%; in the assay on MDA-MB-231 [8], 0.425%; with MDA-MB-231 [9] it was 24.58%. Moreover, the Activity with MDA-MB-231 [10] is 63.1%. The negative-log IC50 (pIC50) in the assay with HepG2 is 5.04; with MCF7 [1] it was 6.38; in assay [12], less than 6.00; in assay [13] it was 7.60; with A549 it was 5.02; in assay [14], 7.72. Further, the figures for the negative logarithm of the IC50 (pIC50) (in the assay with MDA-MB-231 [2]; in [15]) were 5.25 and less than 6.00, respectively. In the assay on MDA-MB-231 [7], the viability at 10 µM was determined as 36.5%.
For the compound `CC(=O)c1c(C)c2cnc(Nc3ccc(N4CCN(C(=O)/C=C/c5ccccc5)CC4)cn3)nc2n(C2CCCC2)c1=O`, the negative-log IC50 (pIC50) with HepG2 is 4.93; in the assay on MCF7 [1], less than 4.70; in the assay on A549 it was 4.84; with MDA-MB-231 [2], 5.17.
The corresponding values for `COc1ccc(/C=C/C(=O)NCC(=O)N2CCN(c3ccc(Nc4ncc5c(C)c(C(C)=O)c(=O)n(C6CCCC6)c5n4)nc3)CC2)cc1OC` are 4.93, 5.63, 4.84 and 5.05.
The corresponding values for `COc1cc(/C=C/C(=O)N2CCN(c3ccc(Nc4ncc5c(C)c(C(C)=O)c(=O)n(C6CCCC6)c5n4)nc3)CC2)ccc1O` are less than 4.70, less than 4.70, less than 4.70 and 5.05.
Turning to `C/C=C/C(=O)N1CCN(c2ccc(Nc3ncc4c(C)c(C(C)=O)c(=O)n(C5CCCC5)c4n3)nc2)CC1`, the pIC50 in the assay with HepG2 is less than 4.70; in the assay on MCF7 [1], 5.63; in the assay with A549 it was 4.76; in the assay with MDA-MB-231 [2], 5.07.
The corresponding values for `CC(=O)c1c(C)c2cnc(Nc3ccc(N4CCN(C(=O)/C=C/C5CC5)CC4)cn3)nc2n(C2CCCC2)c1=O` are less than 4.70, 5.88, 4.75 and 5.11.
Taken in the same sequence, the figures for `COc1ccc(/C=C/C(=O)NCCCC(=O)N2CCN(c3ccc(Nc4ncc5c(C)c(C(C)=O)c(=O)n(C6CCCC6)c5n4)nc3)CC2)cc1OC` were 4.86, less than 4.70, 4.89 and less than 4.70.

By pIC50 is commonly meant −log10 of the IC50, conventionally taken in molar units.

(Values after ChEMBL document CHEMBL5252647 (Bioorg Med Chem, 2023).)
